Laboratory results reported in patent US11786548B2, “Trace element compositions, methods of making and use” (priority 2020, dated 2023).
Where “and” joins values, the source holds several entries; their conditions need not be identical. Identical values can stand only once.

Test: Stability study of injectable trace element composition in parenteral nutrition admixtures (assay test for zinc, copper, selenium, manganese)
Format: physicochemical
From the text: In order to establish stability data for parenteral nutrition admixed with the injectable compositions of trace elements, we conducted a stability study of injectable trace element composition (trace elements injectable composition, USP) in parenteral nutrition admixtures (assay test); a pH study of parenteral nutrition (PN) admixtures upon addition of injectable trace element composition (trace elements injectable composition, USP); a compatibility study of injectable trace element composition (trace elements injectable composition, USP) in parenteral nutrition admixtures; and a reduced inoculation antimicrobial effectiveness study for injectable trace element composition (trace elements injectable composition, USP) in parenteral nutrition admixtures. […]

Compound | Assay Day 0 | Assay Day 5 | Assay Day 7 | Assay Day 10 | Assay Day 14
O.O.O.O.O.O.O.O=S(=O)([O-])[O-].[Zn+2] [Zinc, zinc sulfate heptahydrate] | 96.5% and 98.5% | 93.9% and 94.4% | 93.8% and 96.5% | 97.0% and 96.2% | 96.0% and 96.3%
O.O.O.O.O.O=S(=O)([O-])[O-].[Cu+2] [Copper, cupric sulfate pentahydrate] | 109.7% | 98.7% and 98.8% | 97.8% | 99.9% | 105.5% and 106.0%
